A short description of data set [1]: Test 9: Toxicity Test (acute oral toxicity, mice). The note with it: mouse, in vivo, po. The procedure: A predetermined amount of a solution or suspension of a test compound in corn oil was orally administered to male mice having a body weight of 19 to 23 g (0.2 ml per 10 g of the body weight). After 7 days, the number of killed mice was counted and the influences on the mice were examined.

The test system of the next data set is diamond back moth. In words: Test 4: Effect on Diamond Back Moth. The data set is classed as in vivo. The note with it: Plutella. How it is done:
(§1) To a mixture of 20 parts of the compound of the present invention and 20 parts of Sorpol SM-200 (registered tradename for the product supplied by Toho Chemical Industrial Co., Ltd.) was added 60 parts of xylol, and the mixture was suffciently blended. The obtained emulsifiable concentrate was diluted at a predetermined concentration with distilled water, and the obtained dilution was used.
Cabbage leaves were spread in a plastic cup, and 10 third-instar larvae of diamond back moth were set free in the cup.
A chemical dilution having a concentration of 100 or 20 ppm, prepared in the same manner as described in Test 1, was applied from an applicator at a rate of 3 ml per cup.
After scattering of the chemical dilution, the cup was covered, and after 24 hours, the numbers of killed and living larvae were counted and the mortality was calculated. The test was made on three cups and the average value was calculated.

For data set [2], the system named is tobacco cutworm. Description: Test 2: Tobacco Cutworm Larva Dipping Test, mortality after 24 hours. The data set is classed as in vivo. How it is done: as §1
A dilution having a chemical concentration of 100 or 20 ppm was prepared in the same manner as described in Test 1.
Second-instar and fifth-instar larvae of tobacco cutworm were dipped in the dilution for 5 seconds, and the excessive dilution was removed by a filter paper. Then, the larvae were set free in a plastic cup and an artificial diet was supplied thereto. The cup was allowed to stand still in a thermostat chamber maintained at 25° C. After 24 hours, the numbers of the killed and living larvae were counted and the mortality was calculated. The test was made on three cups and the result was expressed by an average value.

In data set [3] the test system is tobacco cutworm. Description: Test 1: Effect on Tobacco Cutworm (leaf immersion), mortality after 24 hours. The data set is classed as in vivo. The note with it: second-instar larvae, 25° C. The procedure: as §1
An emulsifiable concentrate of a test compound prepared according to the method described in Formulation Example 1 was diluted to a concentration of 100 or 20 ppm. Sweet-potato leaves were immersed in the dilution for 10 seconds, air-dried and placed in a plastic cup having a diameter of 10 cm. Then second-instar larvae of tobacco cutworm were set free in the cup. The cup was allowed to stand still in a thermostat chamber maintained at 25° C. After 24 hours, the numbers of killed and living larvae were counted and the mortality was calculated. The obtained result was expressed by an average value obtained from the mortality calculated in three test cups.

The subject of the next data set is German cockroach. In words: Test 7: Effect on German Cockroach. The note with it: Blattella germanica, male adults, agonized and killed after 24 hours, read-out: Mortality (%); for mortality at 10 mg/m2: 10 mg/m^2; for mortality at 50 mg/m2: 50 mg/m^2. The format is in vivo. The procedure:
as §1
The bottom face of a high Petri dish having a diameter of 9 cm and a height of 9 cm was treated with 50 or 10 mg/m^2 of a test compound and the dish was air-dried. In order to prevent the adults from escaping from the dish, the inner wall of the dish was treated with butter. Then, 10 male adults of German cockroach were set free in each dish, and the dish was placed in a thermostat chamber maintained at 25° C. After 24 hours, the number of agonized and killed adults was counted. The test was made on two dishes and the average value was calculated.

Data set [4] has as its system sensitive green rice leafhopper (collected at Chigasaki). In words: whole plant or invertebrate. The format is in vivo. The conditions noted are these: Nephotettix cincticeps, sensitive female adults, 24 hours, read-out: Mortality (%), Green Rice Leafhopper Collected at Chigasaki. The procedure: as §1
(§2) Seedlings (having 2 to 3 leaves) of paddy rice were hydroponically cultured in a pot having a diameter of 5 cm. A chemical dilution having a concentration of 100 or 20 ppm, prepared in the same manner as described in Test 1, was applied with a sprayer at a rate of 3 ml per pot. The treated seedlings were air-dried and covered with a metal net cylinder, and female adults of resistant green rice leafhopper (collected at Nakagawara) and sensitive green rice leafhopper (collected at Chigasaki) were set, respectively, free in the pot at a density of 10 adults per pot. After 24 hours, the numbers of killed and living adults were counted and the mortality was calculated. The test was made on three pots and the average value was calculated.

In data set [5] the test system is resistant green rice leafhopper (collected at Nakagawara). In words: Test 3: Effect on Resistant Green Rice Leafhopper (collected at Nakagawara). The format is in vivo, Nephotettix cincticeps Uhler (Green rice leafhopper). The note with it: Nephotettix cincticeps, 24 h, read-out: Mortality (%), Green Rice Leafhopper Collected at Nakagawara. How it is done: as §1, §2

Setting [6] is: 24 h, read-out: Motality (%), Fifth-Instar Larvae.
The mark [7] stands for this setting: 20 ppm, third-instar larvae, 24 hours, read-out: Mortality (%).
[8] abbreviates: 100 ppm, third-instar larvae, 24 hours, read-out: Mortality (%).
Where [9] appears, read: 20 ppm, fifth-instar larvae, 24 hours, read-out: Motality (%), Fifth-Instar Larvae.
The mark [10] stands for this setting: 20 ppm, second-instar larvae, 24 hours, read-out: Motality (%), Second-Instar Larvae.
Where [11] appears, read: 100 ppm, fifth-instar larvae, 24 hours, read-out: Motality (%), Fifth-Instar Larvae.
[12] abbreviates: 100 ppm, second-instar larvae, 24 hours, read-out: Motality (%), Second-Instar Larvae.

Where two headings read alike, the source gives them in different places.

Usually LD50 stands for the dose at which mortality reaches 50%. High values mean lower toxicity, low ones greater toxicity. Turning to `CNC(=O)ON=C(C)SC` [Comparative Compound (f), S-methyl N-(methylcarbamoyloxy)thioacetoamidate, reference compound], the LD50 at 168 h in data set [1] turned out to be 28 mg/kg. Also, the mortality at 20 ppm in the data set on diamond back moth (24 h) stood at 0%; with tobacco cutworm [2] (setting [6]) it was 0%; in the data set with tobacco cutworm [2] (24 h, read-out: Motality (%), Second-Instar Larvae), 30%. In addition, the mortality at 100 ppm in the data set with diamond back moth (24 h) was determined as 10%; in the data set on tobacco cutworm [2] (setting [6]), 80%.

In the case of `CC(C)(COCc1cccc(Oc2ccc(F)cc2)c1)c1ccc(Cl)c(Cl)c1` [Compound 17, 3-(4-fluorophenoxy)benzyl 2-(3,4-dichlorophenyl)-2-methylpropyl ether], in data set [1], the LD50 at 168 h was more than 500 mg/kg. Also, the mortality at 20 ppm in the data set with tobacco cutworm [3] came to 80%; in the data set with diamond back moth (setting [7]), 90%; in data set [4] it was 100%; in data set [5] it was 100%. Besides, the mortality at 100 ppm (in the data set with tobacco cutworm [3]; in the data set with diamond back moth (setting [8]); in data set [4]; in data set [5]) was 100% throughout. Also, the mortality at 10 mg/m2 with German cockroach stood at 100%. Further, in the data set with German cockroach, the mortality at 50 mg/m2 was found to be 100%.

In data set [1], `CC(C)(COCc1cccc(Oc2cccc(Cl)c2)c1)c1ccc(Cl)c(Cl)c1` [Compound 38, 3-(3-Chlorophenoxy)benzyl 2-(3,4-dichlorophenyl)-2-methylpropyl ether] displayed an LD50 at 168 h of more than 500 mg/kg. For the same molecule, in the data set on German cockroach, the mortality at 10 mg/m2 came to 90% and the mortality at 50 mg/m2 is 100%. In data set [4], the mortality at 20 ppm amounted to 80% and the mortality at 100 ppm worked out at 100%. Moreover, in data set [5], the mortality at 20 ppm amounted to 95% and the mortality at 100 ppm amounted to 100%.

In data set [1], `CC(C)(COCc1cccc(Oc2ccccc2)c1)c1ccc([N+](=O)[O-])cc1` [Compound 43, 3-Phenoxybenzyl 2-(4-nitrophenyl)-2-methylpropyl ether] returned an LD50 at 168 h of more than 500 mg/kg. Further, the mortality at 20 ppm in the data set with tobacco cutworm [3] came out at 85%; in data set [4], 90%; in data set [5] it was 100%. The mortality at 100 ppm (with tobacco cutworm [3]; in data set [4]; in data set [5]) was 100% each time. In the data set on German cockroach, the mortality at 10 mg/m2 was found to be 100%. Also, the mortality at 50 mg/m2 in the data set with German cockroach stood at 100%.

With `CC(C)(COCc1cccc(Oc2ccccc2)c1)c1ccc(OC2CCCC2)cc1` [Compound 61, 3-Phenoxybenzyl 2-(4-cyclopentyloxyphenyl)-2-methylpropyl ether], the median lethal dose (LD50) at 168 h in data set [1] is more than 500 mg/kg. In addition, in the data set with German cockroach, the mortality at 10 mg/m2 is 70% and the mortality at 50 mg/m2 came to 100%. Also, in data set [4], the mortality at 20 ppm was 100% and the mortality at 100 ppm came to 100%. Besides, in data set [5], the mortality at 20 ppm turned out to be 100% and the mortality at 100 ppm is 100%.

Take `CC(C)(COCc1cccc(Oc2ccccc2)c1)c1ccc(I)cc1` [Compound 65, 3-Phenoxybenzyl 2-(4-iodophenyl)-2-methylpropyl ether]: the median lethal dose (LD50) at 168 h in data set [1] was more than 500 mg/kg. In the data set with tobacco cutworm [3], the mortality at 20 ppm turned out to be 90% and the mortality at 100 ppm is 100%. For the same molecule, in the data set with German cockroach, the mortality at 10 mg/m2 turned out to be 90% and the mortality at 50 mg/m2 was found to be 100%. In data set [4], the mortality at 20 ppm turned out to be 100% and the mortality at 100 ppm was determined as 100%. Moreover, in data set [5], the mortality at 20 ppm worked out at 100% and the mortality at 100 ppm came out at 100%.

In the case of `CC(C)(COCc1cccc(Oc2ccccc2)c1)c1ccc(OC(F)(F)CI)cc1` [Compound 74, 3-Phenoxybenzyl 2-[4-(1,1-difluoro-2-iodoethoxy)phenyl]-2-methylpropyl ether], the 50% lethal dose (LD50) at 168 h in data set [1] is more than 500 mg/kg. The figures for the mortality at 20 ppm with tobacco cutworm [3], with tobacco cutworm [2] (setting [9]) and in the data set with tobacco cutworm [2] (setting [10]) were 100%, 50% and 70%, respectively. Moreover, the mortality at 100 ppm turned out to be 100% in the data set with tobacco cutworm [3], 80% with tobacco cutworm [2] (setting [11]) and 100% with tobacco cutworm [2] (setting [12]). Further, the mortality at 10 mg/m2 in the data set with German cockroach came out at 100%. The mortality at 50 mg/m2 in the data set with German cockroach amounted to 100%.

Consider `CC(F)(F)Oc1ccc(C(C)(C)COCc2cccc(Oc3ccccc3)c2)cc1` [Compound 79, 3-Phenoxybenzyl 2-[4-(1,1-difluoroethoxy)phenyl]-2-methylpropyl ether], for which the LD50 at 168 h in data set [1] is more than 500 mg/kg. The mortality at 10 mg/m2 in the data set on German cockroach was determined as 100%. The mortality at 50 mg/m2 with German cockroach amounted to 100%. Further, the mortality at 20 ppm in the data set with tobacco cutworm [2] (setting [9]) was 50%; in the data set with tobacco cutworm [2] (setting [10]), 80%. Moreover, the mortality at 100 ppm with tobacco cutworm [2] (setting [11]) was 90%; in the data set on tobacco cutworm [2] (setting [12]), 100%.

`CCOc1ccc(Oc2cccc(COCC(C)(C)c3ccc(Cl)cc3)c2)cc1` [Compound 94, 3-(4-Ethoxyphenoxy)benzyl 2-(4-chlorophenyl)-2-methylpropyl ether] showed a median lethal dose (LD50) at 168 h in data set [1] of more than 500 mg/kg. The mortality at 20 ppm with tobacco cutworm [3] came to 100%; in the data set with diamond back moth (setting [7]) it was 80%; in data set [4], 100%; in data set [5], 100%. Further, the mortality at 100 ppm (in the data set on tobacco cutworm [3]; in the data set on diamond back moth (setting [8]); in data set [4]; in data set [5]) was 100% each time.

Molecule `CCOc1ccc(Oc2cccc(COCC(C)(C)c3ccc(OCC)cc3)c2)cc1` [Compound 101, 3-(4-Ethoxyphenoxy)benzyl 2-(4-ethoxyphenyl)-2-methylpropyl ether] returned a median lethal dose (LD50) at 168 h in data set [1] of more than 500 mg/kg. Besides, the mortality at 20 ppm (in the data set with tobacco cutworm [3]; with diamond back moth (setting [7]); in data set [4]; with tobacco cutworm [2] (setting [9]); with tobacco cutworm [2] (setting [10]); in data set [5]) was 100% in each case. Moreover, the mortality at 100 ppm (in the data set with tobacco cutworm [3]; with diamond back moth (setting [8]); in data set [4]; with tobacco cutworm [2] (setting [11]); with tobacco cutworm [2] (setting [12]); in data set [5]) was 100% each time.

`CC(C)(COCc1cccc(Oc2ccccc2)c1)c1ccc(SC(F)(F)F)cc1` [Compound 104, 3-Phenoxybenzyl 2-(4-trifluoromethylthiophenyl)-2-methylpropyl ether] had a 50% lethal dose (LD50) at 168 h in data set [1] of more than 500 mg/kg. The mortality at 20 ppm in the data set with diamond back moth (setting [7]) was determined as 70%. Also, the mortality at 100 ppm in the data set with diamond back moth (setting [8]) worked out at 100%. Moreover, in the data set with German cockroach, the mortality at 10 mg/m2 is 90% and the mortality at 50 mg/m2 turned out to be 100%.

`Cc1ccc(C(C)(C)COCc2cccc(Oc3ccccc3)c2)cc1C` [Compound 109] had a median lethal dose (LD50) at 168 h in data set [1] of more than 500 mg/kg. Besides, in the data set with German cockroach, the mortality at 10 mg/m2 was 100% and the mortality at 50 mg/m2 is 100%. In data set [4], the mortality at 20 ppm was 70% and the mortality at 100 ppm was 100%. In addition, in data set [5], the mortality at 20 ppm amounted to 90% and the mortality at 100 ppm is 100%.
